Laboratory results taken from patent publication US20050229276A1, “Method of producing cyclamen root tuber and method of proliferating cyclamen using the same” (Tokyo University of Agricultural, priority 2002, published 2005).

Test system: cyclamen (cultivar: Dressy Scarlet) seedling
Experiment: Growth of root tubers at cut root ends of seedlings in solid media
Assay type: in vivo
Experimental: A cyclamen (cultivar: Dressy Scarlet) seed was immersed in an ethyl alcohol aqueous solution having an ethyl alcohol concentration of 70 wt % for 10 seconds and in a sodium hypochlorite solution having an effective chlorine concentration of 1 wt % for 10 minutes to sterilize the surface of the seed. Thereafter, this seed was washed in sterilized water 3 times to remove the sodium hypochlorite from the surface of the seed. This was sown in an MS solid medium containing 30 g/l of sucrose and 6 g/l of agar under a germ-free condition and cultured at a temperature of 20° C. under weak light for 30 days to be germinated and rooted.
The end portions of the roots of the above germinated and rooted cyclamen seedling were cut off with a scalpel, and the seedling was planted in the following solid media. As the media, a large number of experimental plots were prepared by adding NAA and BA as phytohormones to the ⅓ MS medium in concentrations shown in Tables 1 to 3 and further adding 30 to 90 g/l of sucrose. 6 g/l of agar was added to all of the media which were then sterilized in an autoclave to prepare media having a pH of 7.0. 10 ml of each of the solid media was placed in a 50 ml culture test tube. The stationary culture of the seedling planted in each of the media was carried out at 20° C. under weak light for a certain number of days to grow root tubers at the end portions of its roots.

[1] = sucrose 30 g/l, BA 1.0 mg/l, NAA 0.05 mg/l, 30-th day
[2] = sucrose 30 g/l, BA 10.0 mg/l, NAA 0.00 mg/l, 30-th day
[3] = sucrose 30 g/l, BA 10.0 mg/l, NAA 0.01 mg/l, 30-th day
[4] = sucrose 30 g/l, BA 10.0 mg/l, NAA 0.05 mg/l, 30-th day
[5] = sucrose 50 g/l, BA 0.1 mg/l, NAA 0.00 mg/l, 30-th day
[6] = sucrose 50 g/l, BA 0.1 mg/l, NAA 0.01 mg/l, 30-th day
[7] = sucrose 50 g/l, BA 0.1 mg/l, NAA 0.05 mg/l, 30-th day
[8] = sucrose 50 g/l, BA 1.0 mg/l, NAA 0.00 mg/l, 30-th day
[9] = sucrose 50 g/l, BA 1.0 mg/l, NAA 0.01 mg/l, 30-th day
[10] = sucrose 50 g/l, BA 1.0 mg/l, NAA 0.05 mg/l, 30-th day
[11] = sucrose 50 g/l, BA 10.0 mg/l, NAA 0.00 mg/l, 30-th day
[12] = sucrose 50 g/l, BA 10.0 mg/l, NAA 0.01 mg/l, 30-th day
[13] = sucrose 50 g/l, BA 10.0 mg/l, NAA 0.05 mg/l, 30-th day
[14] = sucrose 70 g/l, BA 0.1 mg/l, NAA 0.01 mg/l, 30-th day
[15] = sucrose 70 g/l, BA 0.1 mg/l, NAA 0.05 mg/l, 30-th day
[16] = sucrose 70 g/l, BA 1.0 mg/l, NAA 0.00 mg/l, 30-th day
[17] = sucrose 70 g/l, BA 1.0 mg/l, NAA 0.01 mg/l, 30-th day
[18] = sucrose 70 g/l, BA 1.0 mg/l, NAA 0.05 mg/l, 30-th day
[19] = sucrose 70 g/l, BA 10.0 mg/l, NAA 0.00 mg/l, 30-th day
[20] = sucrose 70 g/l, BA 10.0 mg/l, NAA 0.01 mg/l, 30-th day
[21] = sucrose 70 g/l, BA 10.0 mg/l, NAA 0.05 mg/l, 30-th day

In the case of `c1ccc(CNc2ncnc3[nH]cnc23)cc1` [BA, benzylaminopurine], the “Number of large root tubers (diameter of 1 mm or more)” value (“Number of large root tubers” below) [1] is reported as 6, the “Total number of root tubers” value [1] is reported as 7 and the “Number of large root tubers” value [2] is reported as 6. For the same compound, the “Total number of root tubers” value [2] was 11, the “Number of large root tubers” value [3] was 5 and the “Total number of root tubers” value [3] was 5. The “Number of large root tubers” value [4] was 4, the “Total number of root tubers” value [4] was 8 and the “Number of large root tubers” value [5] was 1. For the same compound, the “Total number of root tubers” value [5] was 2, the “Number of large root tubers” value [6] was 0 and the “Total number of root tubers” value [6] was 1. For the same compound, the “Average number of root tubers (per a seedling)” value [7] was 2.8, the “Number of large root tubers” value [7] was 7 and the “Total number of root tubers” value [7] was 14. For the same compound, the “Average number of root tubers (per a seedling)” value (sucrose 50 g/l, BA 0.1 mg/l, NAA 0.05 mg/l, 50-th day) was 2.8, the “Number of large root tubers” value [8] was 11 and the “Total number of root tubers” value [8] was 16. For the same compound, the “Number of large root tubers” value [9] was 11, the “Total number of root tubers” value [9] was 16 and the “Average number of root tubers (per a seedling)” value [10] was 4.8. The “Number of large root tubers” value [10] was 4, the “Total number of root tubers” value [10] was 9 and the “Average number of root tubers (per a seedling)” value (sucrose 50 g/l, BA 1.0 mg/l, NAA 0.05 mg/l, 50-th day) was 4.8. For the same compound, the “Average number of root tubers (per a seedling)” value (sucrose 50 g/l, BA 2.0 mg/l, NAA 0.05 mg/l, 30-th day) was 0.6, the “Average number of root tubers (per a seedling)” value (sucrose 50 g/l, BA 2.0 mg/l, NAA 0.05 mg/l, 50-th day) was 0.6 and the “Average number of root tubers (per a seedling)” value (sucrose 50 g/l, BA 5.0 mg/l, NAA 0.05 mg/l, 30-th day) was 1.8. The “Average number of root tubers (per a seedling)” value (sucrose 50 g/l, BA 5.0 mg/l, NAA 0.05 mg/l, 50-th day) was 1.8, the “Number of large root tubers” value [11] was 6 and the “Total number of root tubers” value [11] was 7. For the same compound, the “Number of large root tubers” value [12] was 3, the “Total number of root tubers” value [12] was 10 and the “Number of large root tubers” value [13] was 4. The “Total number of root tubers” value [13] was 8, the “Number of large root tubers” value [14] was 4 and the “Total number of root tubers” value [14] was 8. For the same compound, the “Average number of root tubers (per a seedling)” value [15] was 4.4, the “Number of large root tubers” value [15] was 12 and the “Total number of root tubers” value [15] was 14. The “Average number of root tubers (per a seedling)” value (sucrose 70 g/l, BA 0.1 mg/l, NAA 0.05 mg/l, 50-th day) was 4.4, the “Number of large root tubers” value [16] was 11 and the “Total number of root tubers” value [16] was 16. For the same compound, the “Number of large root tubers” value [17] was 11, the “Total number of root tubers” value [17] was 19 and the “Average number of root tubers (per a seedling)” value [18] was 0.8. For the same compound, the “Number of large root tubers” value [18] was 9, the “Total number of root tubers” value [18] was 11 and the “Average number of root tubers (per a seedling)” value (sucrose 70 g/l, BA 1.0 mg/l, NAA 0.05 mg/l, 50-th day) was 0.8. For the same compound, the “Average number of root tubers (per a seedling)” value (sucrose 70 g/l, BA 2.0 mg/l, NAA 0.05 mg/l, 30-th day) was 3.2, the “Average number of root tubers (per a seedling)” value (sucrose 70 g/l, BA 2.0 mg/l, NAA 0.05 mg/l, 50-th day) was 3.2 and the “Average number of root tubers (per a seedling)” value (sucrose 70 g/l, BA 5.0 mg/l, NAA 0.05 mg/l, 30-th day) was 1.0. For the same compound, the “Average number of root tubers (per a seedling)” value (sucrose 70 g/l, BA 5.0 mg/l, NAA 0.05 mg/l, 50-th day) was 1.0, the “Number of large root tubers” value [19] was 3 and the “Total number of root tubers” value [19] was 3. For the same compound, the “Number of large root tubers” value [20] was 3, the “Total number of root tubers” value [20] was 3 and the “Number of large root tubers” value [21] was 8. For the same compound, the “Total number of root tubers” value [21] was 14, the “Average number of root tubers (per a seedling)” value (sucrose 90 g/l, BA 0.1 mg/l, NAA 0.05 mg/l, 30-th day) was 2.4 and the “Average number of root tubers (per a seedling)” value (sucrose 90 g/l, BA 0.1 mg/l, NAA 0.05 mg/l, 50-th day) was 2.4. The “Average number of root tubers (per a seedling)” value (sucrose 90 g/l, BA 1.0 mg/l, NAA 0.05 mg/l, 30-th day) was 1.6, the “Average number of root tubers (per a seedling)” value (sucrose 90 g/l, BA 1.0 mg/l, NAA 0.05 mg/l, 50-th day) was 1.6 and the “Average number of root tubers (per a seedling)” value (sucrose 90 g/l, BA 2.0 mg/l, NAA 0.05 mg/l, 30-th day) was 1.0. For the same compound, the “Average number of root tubers (per a seedling)” value (sucrose 90 g/l, BA 2.0 mg/l, NAA 0.05 mg/l, 50-th day) was 1.0, the “Average number of root tubers (per a seedling)” value (sucrose 90 g/l, BA 5.0 mg/l, NAA 0.05 mg/l, 30-th day) was 0.8 and the “Average number of root tubers (per a seedling)” value (sucrose 90 g/l, BA 5.0 mg/l, NAA 0.05 mg/l, 50-th day) was 0.8.
